Data reported in PMC6409085, “Three odorant-binding proteins are involved in the behavioral response of Sogatella furcifera to rice plant volatiles” (PeerJ, 2019).
Values joined by “and” are separate entries in the source; they are usually repeats but may differ in a detail not shown here. Identical values can stand only once.

Assays:
[1] = tested on: S. furcifera adults; assay: Y-tube olfactometer behavioral trials; type: in vivo, Sogatella furcifera; details: odorant 50 µL/L vs hexane
Experimental: To test the effect of the rice odorants on the behavior of S. furcifera adults, a glass Y-tube olfactometer (inner diameter 2.0 cm, stem 13 cm, arms 10 cm, angle of arms 60°) according to the previously described ([Wang et al., 2014b]) was employed. An airtight cubic box (70 by 45 by 30 cm) was used to position Y-tube, and the Y-tube was lighted by a 30-W filament lamp 25 cm above it. Air that filtered through activated charcoal and humidified with doubly distilled water was pumped in both arms at a flow rate of 300 mL/min. Two filter paper strips (10 by 1 cm) containing 100 µL odorant source (50 µL/L) and 100 µL control hexane were placed in two holding chambers in the front of the olfactometer, respectively. A S. furcifera adult (2 days after emergence, starved for 0.5 h) was randomly chosen and placed in the stem of the Y-tube. Each insect was given 10 min to choose between the two arms of the Y-tube, the choice was noted if the planthopper reached one-half of the arms’ lengths and stayed in the arm for more than 1 min. Besides, S. furcifera was considered as having no orientation preference. Forty-five individuals were used for each compound, each insect used only once. And the dual-choice experiment was done in an environmentally controlled room (25 ± 1 °C and 50% RH). A Chi-squared test was used to analyze the behavioral assay data by using SPSS19.0 (SPSS Inc., Chicago, IL, USA) software.

[2] = target: SfurOBP3 (Sogatella furcifera, UniProt V5T818); assay: biochemical; type: binding; details: for Fluorescence competitive binding assay, fluorescence intensity: OBP3, three replicate columns
Outline: (§1)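 Fluorescence competitive binding with 1-NPN as reporter: 2.0 µM protein and 2.0 µM 1-NPN in 50 mM Tris-HCl pH 7.4, odorant added at 2–20 µM final. Excitation 337 nm, emission 390–490 nm read 2 min after addition, triplicates. Ki = IC50/(1 + [1-NPN]/K1-NPN).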

[3] = target: SfurOBP1 (Sogatella furcifera, UniProt V5T8N5); assay: biochemical; type: binding; details: for Fluorescence competitive binding assay, fluorescence intensity: OBP1, three replicate columns
Outline: as §1

[4] = target: SfurOBP2 (Sogatella furcifera, UniProt V5T759); assay: biochemical; type: binding
Outline: as §1

[5] = target: SfurOBP11 (Sogatella furcifera, UniProt V5T6E3); assay: biochemical; type: binding
Outline: as §1

SfurOBP3, sequence (V5T818 entry or part of it): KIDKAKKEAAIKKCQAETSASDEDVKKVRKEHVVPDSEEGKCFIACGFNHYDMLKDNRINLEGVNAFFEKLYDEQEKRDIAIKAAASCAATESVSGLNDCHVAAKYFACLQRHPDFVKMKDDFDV
SfurOBP2, sequence (V5T759 entry or part of it): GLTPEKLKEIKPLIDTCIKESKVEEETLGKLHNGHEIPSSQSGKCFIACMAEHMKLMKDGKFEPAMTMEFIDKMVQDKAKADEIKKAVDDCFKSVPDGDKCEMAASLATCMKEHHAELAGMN
SfurOBP11, sequence (V5T6E3 entry or part of it): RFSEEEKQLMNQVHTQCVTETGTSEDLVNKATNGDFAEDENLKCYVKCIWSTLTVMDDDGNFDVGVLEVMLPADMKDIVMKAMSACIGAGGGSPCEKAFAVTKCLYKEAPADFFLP
SfurOBP1, sequence (V5T8N5 entry or part of it): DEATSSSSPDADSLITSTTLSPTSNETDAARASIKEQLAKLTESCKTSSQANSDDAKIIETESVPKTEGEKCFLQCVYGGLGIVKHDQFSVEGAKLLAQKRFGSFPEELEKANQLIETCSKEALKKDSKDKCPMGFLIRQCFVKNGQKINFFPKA

CCCCCCCC [n-octane]
behavioral response of S. furcifera (in words) [1]: significantly repelled | number of insects choosing hexane arm ([1]; adults): 19 | number of insects choosing volatilies arm ([1]; adults): 10 | number of insects failed (no choice) ([1]; adults): 11 | Fluorescence competitive binding assay, fluorescence intensity ([2]; ligand concentration 2): 68170 and 67677 and 64610 | Fluorescence competitive binding assay, fluorescence intensity ([2]; ligand concentration 4): 67293 and 62720 and 65655 | Fluorescence competitive binding assay, fluorescence intensity ([2]; ligand concentration 6): 76553 and 64631 and 57162 | Fluorescence competitive binding assay, fluorescence intensity ([2]; ligand concentration 8): 71829 and 61798 and 56284 | Fluorescence competitive binding assay, fluorescence intensity ([2]; ligand concentration 10): 59554 and 55292 and 53530 | Fluorescence competitive binding assay, fluorescence intensity ([2]; ligand concentration 12): 55099 and 48687 and 52349 | Fluorescence competitive binding assay, fluorescence intensity ([2]; ligand concentration 14): 54529 and 46904 and 51749 | Fluorescence competitive binding assay, fluorescence intensity ([2]; ligand concentration 16): 48833 and 47113 and 45049 | Fluorescence competitive binding assay, fluorescence intensity ([2]; ligand concentration 18): 45841 and 47813 and 46502 | Fluorescence competitive binding assay, fluorescence intensity ([2]; ligand concentration 20): 46899 and 47179 and 42858 | IC50 ([2]; SfurOBP3, protein and 1-NPN both 2.0 µM, competitor 2-20 µM, read-out: IC50): > 20 µM | Fluorescence competitive binding assay, fluorescence intensity ([3]; ligand concentration 2 (μM)): 5925 and 7991 and 7456 | Fluorescence competitive binding assay, fluorescence intensity ([3]; ligand concentration 4 (μM)): 8340 and 7163 and 7902 | Fluorescence competitive binding assay, fluorescence intensity ([3]; ligand concentration 6 (μM)): 8616 and 7456 and 8995 | Fluorescence competitive binding assay, fluorescence intensity ([3]; ligand concentration 8 (μM)): 8020 and 7176 and 8029 | Fluorescence competitive binding assay, fluorescence intensity ([3]; ligand concentration 10 (μM)): 7070 and 8613 and 8224 | Fluorescence competitive binding assay, fluorescence intensity ([3]; ligand concentration 12 (μM)): 6680 and 8217 and 6786 | Fluorescence competitive binding assay, fluorescence intensity ([3]; ligand concentration 14 (μM)): 7048 and 6801 and 7552 | Fluorescence competitive binding assay, fluorescence intensity ([3]; ligand concentration 16 (μM)): 6817 and 7163 and 7002 | Fluorescence competitive binding assay, fluorescence intensity ([3]; ligand concentration 18 (μM)): 8094 and 8514 and 8878 | Fluorescence competitive binding assay, fluorescence intensity ([3]; ligand concentration 20 (μM)): 7869 and 7702 and 8440 | IC50 ([3]; SfurOBP1, protein and 1-NPN both 2.0 µM, competitor 2-20 µM, read-out: IC50): > 20 µM | IC50 ([4]; SfurOBP2, protein and 1-NPN both 2.0 µM, competitor 2-20 µM, read-out: IC50): 19.9 µM | Fluorescence competitive binding assay, OBP2 (raw fluorescence reading) ([4]; ligand concentration 2 (unit not given), replicate column 1 of 3): 18817 | Fluorescence competitive binding assay, OBP2 (raw fluorescence reading) ([4]; ligand concentration 2 (unit not given), replicate column 2 of 3): 16925 | Fluorescence competitive binding assay, OBP2 (raw fluorescence reading) ([4]; ligand concentration 2 (unit not given), replicate column 3 of 3): 16813 | Fluorescence competitive binding assay, OBP2 (raw fluorescence reading) ([4]; ligand concentration 4 (unit not given), replicate column 1 of 3): 17604 | Fluorescence competitive binding assay, OBP2 (raw fluorescence reading) ([4]; ligand concentration 4 (unit not given), replicate column 2 of 3): 17269 | Fluorescence competitive binding assay, OBP2 (raw fluorescence reading) ([4]; ligand concentration 4 (unit not given), replicate column 3 of 3): 15635 | Fluorescence competitive binding assay, OBP2 (raw fluorescence reading) ([4]; ligand concentration 6 (unit not given), replicate column 1 of 3): 16307 | Fluorescence competitive binding assay, OBP2 (raw fluorescence reading) ([4]; ligand concentration 6 (unit not given), replicate column 2 of 3): 16391 | Fluorescence competitive binding assay, OBP2 (raw fluorescence reading) ([4]; ligand concentration 6 (unit not given), replicate column 3 of 3): 15566 | Fluorescence competitive binding assay, OBP2 (raw fluorescence reading) ([4]; ligand concentration 8 (unit not given), replicate column 1 of 3): 15494 | Fluorescence competitive binding assay, OBP2 (raw fluorescence reading) ([4]; ligand concentration 8 (unit not given), replicate column 2 of 3): 15122 | Fluorescence competitive binding assay, OBP2 (raw fluorescence reading) ([4]; ligand concentration 8 (unit not given), replicate column 3 of 3): 16014 | Fluorescence competitive binding assay, OBP2 (raw fluorescence reading) ([4]; ligand concentration 10 (unit not given), replicate column 1 of 3): 15063 | Fluorescence competitive binding assay, OBP2 (raw fluorescence reading) ([4]; ligand concentration 10 (unit not given), replicate column 2 of 3): 14978 | Fluorescence competitive binding assay, OBP2 (raw fluorescence reading) ([4]; ligand concentration 10 (unit not given), replicate column 3 of 3): 15010 | Fluorescence competitive binding assay, OBP2 (raw fluorescence reading) ([4]; ligand concentration 12 (unit not given), replicate column 1 of 3): 12606 | Fluorescence competitive binding assay, OBP2 (raw fluorescence reading) ([4]; ligand concentration 12 (unit not given), replicate column 2 of 3): 12327 | Fluorescence competitive binding assay, OBP2 (raw fluorescence reading) ([4]; ligand concentration 12 (unit not given), replicate column 3 of 3): 12885 | Fluorescence competitive binding assay, OBP2 (raw fluorescence reading) ([4]; ligand concentration 14 (unit not given), replicate column 1 of 3): 12907 | Fluorescence competitive binding assay, OBP2 (raw fluorescence reading) ([4]; ligand concentration 14 (unit not given), replicate column 2 of 3): 11889 | Fluorescence competitive binding assay, OBP2 (raw fluorescence reading) ([4]; ligand concentration 14 (unit not given), replicate column 3 of 3): 12746 | Fluorescence competitive binding assay, OBP2 (raw fluorescence reading) ([4]; ligand concentration 16 (unit not given), replicate column 1 of 3): 11757 | Fluorescence competitive binding assay, OBP2 (raw fluorescence reading) ([4]; ligand concentration 16 (unit not given), replicate column 2 of 3): 11955 | Fluorescence competitive binding assay, OBP2 (raw fluorescence reading) ([4]; ligand concentration 16 (unit not given), replicate column 3 of 3): 11106 | Fluorescence competitive binding assay, OBP2 (raw fluorescence reading) ([4]; ligand concentration 18 (unit not given), replicate column 1 of 3): 11096 | Fluorescence competitive binding assay, OBP2 (raw fluorescence reading) ([4]; ligand concentration 18 (unit not given), replicate column 2 of 3): 11451 | Fluorescence competitive binding assay, OBP2 (raw fluorescence reading) ([4]; ligand concentration 18 (unit not given), replicate column 3 of 3): 11415 | Fluorescence competitive binding assay, OBP2 (raw fluorescence reading) ([4]; ligand concentration 20 (unit not given), replicate column 1 of 3): 12132 | Fluorescence competitive binding assay, OBP2 (raw fluorescence reading) ([4]; ligand concentration 20 (unit not given), replicate column 2 of 3): 10679 | Fluorescence competitive binding assay, OBP2 (raw fluorescence reading) ([4]; ligand concentration 20 (unit not given), replicate column 3 of 3): 10932 | IC50 ([5]; SfurOBP11, protein and 1-NPN both 2.0 µM, competitor 2-20 µM, read-out: IC50): > 20 µM | Fluorescence intensity, fluorescence competitive binding assay, OBP11 ([5]; ligand concentration 2, replicate 1): 29315 | Fluorescence intensity, fluorescence competitive binding assay, OBP11 ([5]; ligand concentration 2, replicate 2): 29331 | Fluorescence intensity, fluorescence competitive binding assay, OBP11 ([5]; ligand concentration 2, replicate 3): 31569 | Fluorescence intensity, fluorescence competitive binding assay, OBP11 ([5]; ligand concentration 4, replicate 1): 28278 | Fluorescence intensity, fluorescence competitive binding assay, OBP11 ([5]; ligand concentration 4, replicate 2): 30015 | Fluorescence intensity, fluorescence competitive binding assay, OBP11 ([5]; ligand concentration 4, replicate 3): 31065 | Fluorescence intensity, fluorescence competitive binding assay, OBP11 ([5]; ligand concentration 6, replicate 1): 29774 | Fluorescence intensity, fluorescence competitive binding assay, OBP11 ([5]; ligand concentration 6, replicate 2): 29054 | Fluorescence intensity, fluorescence competitive binding assay, OBP11 ([5]; ligand concentration 6, replicate 3): 29894 | Fluorescence intensity, fluorescence competitive binding assay, OBP11 ([5]; ligand concentration 8, replicate 1): 27943 | Fluorescence intensity, fluorescence competitive binding assay, OBP11 ([5]; ligand concentration 8, replicate 2): 28064 | Fluorescence intensity, fluorescence competitive binding assay, OBP11 ([5]; ligand concentration 8, replicate 3): 27821 | Fluorescence intensity, fluorescence competitive binding assay, OBP11 ([5]; ligand concentration 10, replicate 1): 27525 | Fluorescence intensity, fluorescence competitive binding assay, OBP11 ([5]; ligand concentration 10, replicate 2): 26078 | Fluorescence intensity, fluorescence competitive binding assay, OBP11 ([5]; ligand concentration 10, replicate 3): 27163 | Fluorescence intensity, fluorescence competitive binding assay, OBP11 ([5]; ligand concentration 12, replicate 1): 24273 | Fluorescence intensity, fluorescence competitive binding assay, OBP11 ([5]; ligand concentration 12, replicate 2): 26556 | Fluorescence intensity, fluorescence competitive binding assay, OBP11 ([5]; ligand concentration 12, replicate 3): 26721 | Fluorescence intensity, fluorescence competitive binding assay, OBP11 ([5]; ligand concentration 14, replicate 1): 22920 | Fluorescence intensity, fluorescence competitive binding assay, OBP11 ([5]; ligand concentration 14, replicate 2): 23793 | Fluorescence intensity, fluorescence competitive binding assay, OBP11 ([5]; ligand concentration 14, replicate 3): 23357 | Fluorescence intensity, fluorescence competitive binding assay, OBP11 ([5]; ligand concentration 16, replicate 1): 19613 | Fluorescence intensity, fluorescence competitive binding assay, OBP11 ([5]; ligand concentration 16, replicate 2): 20535 | Fluorescence intensity, fluorescence competitive binding assay, OBP11 ([5]; ligand concentration 16, replicate 3): 20285 | Fluorescence intensity, fluorescence competitive binding assay, OBP11 ([5]; ligand concentration 18, replicate 1): 26966 | Fluorescence intensity, fluorescence competitive binding assay, OBP11 ([5]; ligand concentration 18, replicate 2): 26281 | Fluorescence intensity, fluorescence competitive binding assay, OBP11 ([5]; ligand concentration 18, replicate 3): 26291 | Fluorescence intensity, fluorescence competitive binding assay, OBP11 ([5]; ligand concentration 20, replicate 1): 26611 | Fluorescence intensity, fluorescence competitive binding assay, OBP11 ([5]; ligand concentration 20, replicate 2): 26798 | Fluorescence intensity, fluorescence competitive binding assay, OBP11 ([5]; ligand concentration 20, replicate 3): 25454
